Source: patent US5208320A, “Polypeptide having c-AMP-producing activity” (Takeda Chemical Industries, Ltd., priority 1990, dated 1993)
Ends that are not written are not given here.

Experiments:
PC12h cells = assay: c-AMP-producing activity: c-AMP secreted by PC12h cells, radioimmunoassay kit; format: cell-based, rat; details: sample added, 37° C. for 2 hours, c-AMP in culture solution, FIG. 1
Description: In the present invention, c-AMP producing activity was assayed by determining the amount of c-AMP secreted out of cells with a radioimmunoassay kit for measuring c-AMP, using subcultured cell PC12h of rat adrenal medulla origin.
Established cells derived from adrenal medullas, PC12h, were cultivated in Dulbecco's modified Eagle's medium containing 10% semi-fetal calf serum at 37° C. A 48-well collagen-treated plate was inoculated with 5×10^4 cells per well, and cultivation was conducted for 7 to 10 days. Then, the culture medium was exchanged for 500 μl of Hank's balanced salt solution, followed by standing at 37° C. for 30 minutes. A sample to be tested dissolved in the same solution was added thereto, and cultivation was conducted at 37° C. for 2 hours. Subsequently, the amount of c-AMP in this culture solution was assayed by using a kit for measuring c-AMP (Amersham Inc.).

[1] = tested on: neuronal cell death induced by the gp120 envelope glycoprotein of the AIDS virus; details: known property of VIP; cited from earlier work
[2] = background art; cited from earlier work

Substance: vasoactive intestinal peptide (HSDAVFTDNYTRLRKQMAVKKYLNSILN; ends and bridges not checked; UniProt P01282 125-152, looked up) [VIP, 68% homology with PACAP-27-NH2]
- c-AMP-producing activity (PC12h cells): weak
- protection of neurons from cell death induced by gp120 [1]: capable of protecting neurons from cell death
- c-AMP-producing activity [2]: very weak
